Patent US20250248970A1, “NOVEL SUBSTITUTED FLUORINATED N-PROPYL-PYRROLIDINE COMPOUNDS, PROCESSES FOR THEIR PREPARATION AND THERAPEUTIC USES THEREOF” (SANOFI, priority 2022, published 2025)

Assays:
ERα = molecular target: T1, ERα (Homo sapiens, UniProt P03372); assay: Estrogen receptor degradation activity (breast cancer cell ERα in cell western assay); type: cell-based; details: MCF7 cells, 0.3 μM, 4 hours, % of ERα levels decrease relative to fulvestrant
T1 construct: host or cells: MCF7
T1 sequence (P03372 1-595): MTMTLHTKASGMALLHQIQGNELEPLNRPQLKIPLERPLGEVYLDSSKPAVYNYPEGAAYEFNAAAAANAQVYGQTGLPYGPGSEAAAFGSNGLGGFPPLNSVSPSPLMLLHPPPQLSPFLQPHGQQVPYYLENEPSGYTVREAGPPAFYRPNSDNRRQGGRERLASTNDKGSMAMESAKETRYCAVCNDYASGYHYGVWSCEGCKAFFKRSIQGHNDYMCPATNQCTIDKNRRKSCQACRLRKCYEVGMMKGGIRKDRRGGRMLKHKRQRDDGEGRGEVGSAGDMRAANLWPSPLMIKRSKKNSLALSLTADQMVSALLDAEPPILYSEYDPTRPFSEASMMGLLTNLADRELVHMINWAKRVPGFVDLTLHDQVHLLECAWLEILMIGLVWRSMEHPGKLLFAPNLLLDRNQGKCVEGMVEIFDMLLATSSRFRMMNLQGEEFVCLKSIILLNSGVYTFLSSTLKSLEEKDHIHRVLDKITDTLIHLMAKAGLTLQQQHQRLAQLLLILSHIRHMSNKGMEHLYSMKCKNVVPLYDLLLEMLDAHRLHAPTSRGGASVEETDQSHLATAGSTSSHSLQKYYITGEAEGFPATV
Outline: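 MCF7 cells in phenol red-free MEM alpha with 5% charcoal-stripped FBS were exposed for 4 h to 9-point 1:5 dilutions (0.3–0.0000018 μM final). In-cell western: anti-ERα immunofluorescence normalized to Syto-64 DNA stain, scaled between DMSO and 0.1 μM fulvestrant; IC50 as 50% ERα degradation, in nM.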

CYP3A4 = CYP3A4 induction potential for ADME profile evaluation (CYP3A4 mRNA by RT-PCR in primary human hepatocytes); type: in vitro ADME; details: approximately 48 hours, 0.3-10 μM, relative to 10 μM rifampicin
Description: Such test is based, for example, on the quantification of CYP3A4 mRNA induction performed by RT-PCR analysis. Said % Emax may be calculated as detailed in the illustrative part under the following formula:
[formula] • ECompound: relative fold mRNA expression following treatment with test compound, • EPositive control: relative fold mRNA expression following reference inducer i.e., 10 μM rifampicin, • EVehicle control: relative fold mRNA expression following vehicle treatment i.e., 0.1% DMSO, and • E is the efficiency of the quantitative PCR.
Said test evaluates the potential induction effect of the tested compounds on CYP3A4 gene expression in primary cultures of human hepatocytes from one or two donors with established concentration-dependent response to the reference inducer, rifampicin.
Before seeding, cell viability was estimated using the Trypan blue dye exclusion test. Hepatocytes were seeded on collagen I-coated 96-well plates at a density of 70 000 cells/well in 100 μL of plating medium for at least 4 hours under a humidified atmosphere of CO2/air (5%/95%), at 37° C. After the cell attachment period, the plating medium was removed, and the hepatocytes were treated daily for 2 consecutive days (approximately 48 hours), with 100 μL per well of fresh culture medium containing either the vehicle control (0.1% DMSO) or the investigated compounds at four concentrations 0.3, 1, 3 and 10 μM, or rifampicin, the reference inducer at 10 μM. All incubations were performed in duplicates.
Ten mM stock solutions of the different compounds were diluted to obtain 0.3, 1 and 3 mM daughter solutions. The day of the experiment, stock solutions were diluted 1000-fold in the incubation/culture medium to achieve final concentrations of 0.3, 1, 3 and 10 μM.
After the 48-hour incubation period with the test compounds, the cell culture medium was removed, and the cells were lysed to release the RNA for CYP3A4 gene expression assessment. Quantification of CYP3A4 mRNA induction was performed by RT-PCR analysis.
Total RNA was extracted from hepatocytes using the King Fisher™ Flex Purification System with the MagMAX mirVana Total RNA Isolation kit (Thermo Fisher Scientific, USA). RNA was quantified by fluorimetry using the Quantifluor RNA System (Promega, USA) and cDNAs were synthesized from […] total RNA using the iScript Reverse Transcription Supermix for RT-qPCR from Biorad (France) at 42° C. for 30 min. cDNA samples were then diluted in water (1:5) and 5 μL of each sample was used for real-time PCR amplification by using the SYBR Green kit from Biorad (France). The following program was used: a denaturation step at 95° C. for 30 sec, and 40 cycles of PCR (denaturation, 95° C., 10 sec and annealing and extension, 58° C., 1 min). In all cases, the quality of the PCR product was assessed by monitoring a fusion step at the end of the run. Human forward and reverse primer sequences used were: 5′-CCT-GGC-ACC-CAG-CAC-AAT-3′ and 5′-GGG-CCG GAC-TCG-TCA-TAC-3′ for actin, 5′-CAC-AAA-CG-GAG-GCC-TTT-TG-3′ and 5′-ATC-CAT-GCT-GTA-GGC-CCC-AA-3′ for CYP3A4.
Cq (quantification cycle) values were determined using a multi-variable, non-linear regression model to individual well traces and then using this model an optimal Cq value was computed. Cq values are inversely proportional to the amount of target nucleic acid in the sample (i.e., lowest Cq level corresponds to the greatest amount of target nucleic acid in the sample). Cq of reference gene (in this study human actin) was also used as positive control of quantitative PCR.
The extent of induction or % of Emax, resulting from treatment with test compounds was calculated under the following formula: […]

Structure (SMILES) | % Degradation At 0.3 μM (ERα) [%] | CYP3A4 induction Emax (%) (CYP3A4)
Cl.O=C(O)c1ccc2c(c1)CCCC(c1ccc(F)cc1Cl)=C2c1ccc(CC2CCN(CCCF)C2)cc1 (single isomer, unassigned; isomer 1) [Compound 2, 8-(2-chloro-4-fluorophenyl)-9-(4-((1-(3-fluoropropyl)pyrrolidin-3-yl)methyl)phenyl)-6,7-dihydro-5H-benzo[7]annulene-3-carboxylic acid hydrochloride, Isomer 1] | 74 | 23
Cc1cccc(C2=C(c3ccc(CC4CCN(CCCF)C4)cc3)c3ccc(C(=O)O)cc3CCC2)c1C(F)(F)F (single isomer, unassigned; isomer 1) [Compound 30, 9-(4-((1-(3-fluoropropyl)pyrrolidin-3-yl)methyl)phenyl)-8-(3-methyl-2-(trifluoromethyl)phenyl)-6,7-dihydro-5H-benzo[7]annulene-3-carboxylic acid, Isomer 1] | 85 | 15
Cc1c(Cl)cccc1C1=C(c2ccc(CC3CCN(CCC(F)F)C3)cc2)c2ccc(C(=O)O)cc2CCC1.Cl (single isomer, unassigned; isomer 1) [Compound 6, 8-(3-chloro-2-methylphenyl)-9-(4-((1-(3,3-difluoropropyl)pyrrolidin-3-yl)methyl)phenyl)-6,7-dihydro-5H-benzo[7]annulene-3-carboxylic acid hydrochloride, Isomer 1] | 81 | 8
CC1(C)CC=C(C2=C(c3ccc(CC4CCN(CCCF)C4)cc3)c3ccc(C(=O)O)cc3CCC2)CC1.Cl (single isomer, unassigned; isomer 1) [Compound 11, 8-(4,4-dimethylcyclohex-1-en-1-yl)-9-(4-((1-(3-fluoropropyl)pyrrolidin-3-yl)methyl)phenyl)-6,7-dihydro-5H-benzo[7]annulene-3-carboxylic acid hydrochloride, Isomer 1] | 90 | 11
Cl.O=C(O)c1ccc2c(c1)CCCC(c1cccc(F)c1Cl)=C2c1ccc(CC2CCN(CCCF)C2)cc1 (single isomer, unassigned; isomer 1) [Compound 21, 8-(2-chloro-3-fluorophenyl)-9-(4-((1-(3-fluoropropyl)pyrrolidin-3-yl)methyl)phenyl)-6,7-dihydro-5H-benzo[7]annulene-3-carboxylic acid hydrochloride, Isomer 1] | 87 | 42
O=C(O)c1ccc2c(c1)CCCC(c1cccc(Cl)c1F)=C2c1ccc(CC2CCN(CCCF)C2)cc1 (single isomer, unassigned; isomer 1) [Compound 16, 8-(3-chloro-2-fluorophenyl)-9-(4-((1-(3-fluoropropyl)pyrrolidin-3-yl)methyl)phenyl)-6,7-dihydro-5H-benzo[7]annulene-3-carboxylic acid, Isomer 1] | 88 | 22
